Read-outs that look alike come from different tables or passages of the source.

Type in all cases: cell-based
Assay [1] deals with P. aeruginosa ATCC 27853. The experiment in a line: Time-kill kinetics in the presence of 2% porcine gastric mucin. The following applies: for killing in time-kill curves / Time to reach bactericidal killing, antibiotic alone: P. aeruginosa ATCC 27853; for killing in time-kill curves: FIGS. 1-7, fosfomycin and tobramycin alone as comparators of the combination; for Time to reach bactericidal killing, antibiotic alone: single antibiotic, 32 μg/mL. Here is the method: Two to three bacterial colonies were inoculated into 10 mL CAMHB and incubated at 35° C. in a shaking water bath (250 rpm) for 18-24 hours. […] The resulting culture was adjusted to a 0.5 McFarland standard (NCCLS, 2003). […] Ten milliliter aliquots were then pipeted into 50 mL conical tubes. […] The killing activity of fosfomycin plus amikacin, arbekacin, dibikacin, gentamicin, kanamycin, […], neomycin, streptomycin, or tobramycin were also compared to the killing activity of their individual components alone. […] A no drug control was run in each experiment. Cultures were incubated with antibiotic at 35° C. in a shaking (250 rpm) water bath for 24 hours. […] Culture plates were incubated at 35° C. for 18-24 hours and the number of colonies enumerated manually. The limit of detection for the colony counting method was 1 Log10). Time-kill curves were constructed by plotting the Log10 number of CFU/mL culture versus time.

Assay [2] relates to S. aureus ATCC 29213. In words: MBC/MIC, broth microdilution. Here is the method:
(§1) “Minimal bactericidal concentration (MBC)” means the lowest concentration of antibiotic that results in ≧3 Log10 of bacterial killing.
(§2) The MICs of amikacin, arbekacin, dibekacin, gentamicin, kanamycin, netilimicin, neomycin, streptomycin, and tobramycin alone were determined for P. aeruginosa ATCC 27853 by the broth-microdilution method according to NCCLS standards (NCCLS, 2003). E. coli ATCC 25922 and S. aureus ATCC 29213 were used as quality control stains. Bacterial strains were streaked onto blood agar plates, and incubated at 35° C. for 18 hours. Two to three bacterial colonies from the overnight cultures were inoculated into 3 mL of sterile normal saline, vortexed briefly, and adjusted to a 0.5 McFarland standard (NCCLS, 2003). The bacterial suspension was diluted 1:100 in cation-adjusted Mueller-Hinton broth (hereafter referred to as CAMHB). Fifty microliters of bacterial inoculum (approximately 2×10^5 CFU/mL) was pipeted into individual wells of 96-well plates containing 50 μl of CAMHB (Remel, Lenexa, Kanas) supplemented with 2-fold dilutions of antibiotics ranging in concentration from 0.125 μg/mL to 128 μg/mL. The MIC was defined as the lowest concentration of antibiotic (s) that prevented visible growth after incubation at 35° C. for 18-24 hours.
(§3) The MBCs of fosfomycin, amikacin, arbekacin, dibikacin, gentamicin, kanamycin B, netilimicin, neomycin, streptomycin, or tobramycin alone for P. aeruginosa ATCC 27853, E. coli ATCC 25922, and S. aureus ATCC 29213 were determined by the broth microdilution method according to NCCLS standards (NCCLS, 1999). Bacterial strains were streaked onto blood agar plates and incubated at 35° C. for 18-24 hours. Two to three bacterial colonies from the overnight cultures were inoculated into 3 mL of sterile normal saline, vortexed briefly, and adjusted to a 0.5 McFarland standard (NCCLS, 2003). Fifty microliters of bacterial inoculum (approximately 2×10^5 CFU/mL) was pipeted into individual wells of 96-well plates containing 50 μl of CAMHB (Remel, Lenexa, Kanas) supplemented with 2-fold dilutions of antibiotics ranging in concentration from 0.125 μg/mL to 128 μg/mL. Plates were incubated at 35° C. for 18-24 hours and MIC determined as described in Example 5, Method C. The contents of wells showing no growth (MIC and above) were mixed with a pipetor and duplicate 10 μl samples spread onto blood agar plates. Culture plates were incubated at 35° C. for 18-24 hours and the number of bacterial colonies on each plate enumerated manually. Rejection values were determined by NCCLS methods which considers the final inoculum size, single or double sampling, pipetting error, and the Poisson distribution of sample responses (NCCLS, 1999). […] The MBC was defined as the ≧3 Log10 decrease in CFU/mL of the original inoculum as described by NCCLS standards (NCCLS, 1999). The MBC/MIC ratios were calculated by dividing the MBC by the MIC.

Assay [3] concerns P. aeruginosa ATCC 27853. In words: MBC/MIC, broth microdilution. The procedure:
as §1, §2, §3

In assay [4] the test system is E. coli ATCC 25922. The experiment in a line: MBC/MIC, broth microdilution. The procedure: as §1, §2, §3
On the technique in general: Broth dilution looks for growth in wells or tubes with falling amounts of substance.

Assay [5] has as its system 100 P. aeruginosa strains isolated from lung sputum samples from cystic fibrosis patients. In words: MIC50 and MIC90 for 100 P. aeruginosa strains, CF mucin binding model (+mucin). The note with it: Pseudomonas aeruginosa; for MIC90: read-out: MIC90 Mucin (+). Here is the method:
The MICs of fosfomycin alone, tobramycin alone, or combinations of fosfomycin plus tobramycin were determined by the agar-plate dilution method according to NCCLS guidelines (NCCLS, 2003). Bacterial strains were streaked onto Trypic Soy Agar plates (PML Microbiologicals, Wilsonville, Oreg.) containing 5% defibrinated sheep blood (hereafter referred to as blood agar plates) and incubated overnight at 35° C. Two to three bacterial colonies from the overnight cultures were inoculated into 3 mL of sterile normal saline, vortexed briefly, and adjusted to a 0.5 McFarland standard (NCCLS, 2003). The bacterial suspension was diluted 1:40 in sterile normal saline and served as the inoculum. Mueller-Hinton agar plates (hereafter referred to as MHA) were prepared by combining 16 g of agarose (Becton-Dickinson, Sparks, Md.), 22 g of Mueller-Hinton broth powder (Becton-Dickinson, Sparks, Md.), and adjusted to 1 L with distilled water. The agar was sterilized by autoclaving, cooled to 55° C., and supplemented with 25 μg/mL of glucose-6-phosphate (Sigma-Aldrich, St. Louis, Mo.). Twenty-five mL of cooled agar was aliquoted into 50 mL conical tubes and supplemented with appropriate concentrations of antibiotic to achieve concentrations ranging from 0.06 μg/mL to 512 μg/mL. After gently mixing the agar and antibiotic, the suspension was poured into sterile 100 mm petri dishes and allowed to solidify at room temperature. The antibiotic agar plates were inoculated with approximately 2×10^4 CFU/spot with a 48-point inoculator (Sigma-Aldrich, St. Louis, Mo.). The MIC was defined as the lowest concentration of antibiotic (s) that prevented visible growth after incubation for 18-20 hours at 35° C. The efficacy of a particular antibiotic or antibiotic combination on large populations of P. aeruginosa was determined by calculating the MIC50 and MIC90 values. The MIC50 value was defined as the concentration of antibiotic(s) which inhibited 50% of the P. aeruginosa strains. The MIC90 value was defined as the concentration of antibiotic(s) which inhibited 90% of the P. aeruginosa strains (Wiedemann and Grimm, 1996).
The MICs of fosfomycin alone, tobramycin alone, or combinations of fosfomycin plus tobramycin were determined for P. aeruginosa strains in the presence of porcine gastric mucin to evaluate the effect of mucin and protein binding on antibiotic activity. Methodologies were identical to that described in Example 5, Method A, with the exception that 2% (weight/volume) porcine gastric mucin (Sigma Chemical Co., St. Louis, Mo.) was added to the MHA prior to autoclaving.

Setting [6] is: 100 P. aeruginosa strains, 2% porcine gastric mucin.

By MIC50 is commonly meant the lowest concentration that inhibits either 50% of growth or 50% of the strains tested, depending on the study. A word on the MIC90: it is the lowest concentration that inhibits either 90% of growth or 90% of the strains tested, depending on the study. Turning to `NC[C@H]1O[C@H](O[C@H]2[C@H](O)[C@@H](O[C@H]3O[C@H](CO)[C@@H](O)[C@H](N)[C@H]3O)[C@H](N)C[C@@H]2N)[C@H](N)C[C@@H]1O` [Tobramycin], the “rank of killing activity, combinations and tobramycin alone compared” value in assay [1] (16 ug/mL, FIGS. 8 and 9) was “most active antibiotic”. In assay [1], the “killing in time-kill curves” value was “bacteriostatic killing” and the “Time to reach bactericidal killing, antibiotic alone” value worked out at 1 h. Moreover, the “MBC/MIC S. aureus” value in assay [2] was determined as 8. Moreover, the “MBC/MIC P. aeruginosa” value in assay [3] was determined as 1. Besides, in assay [3] (aminoglycoside alone), the “MBC/MIC Aminoglycoside” value stood at 1. For the same molecule, in assay [4], the “MBC/MIC E. coli” value is on record as 1. Besides, in assay [5] (setting [6]), the MIC50 stood at 16 µg/mL and the MIC90 worked out at 64 µg/mL.

Consider `C[C@@H]1O[C@@H]1P(=O)(O)O` [Fosfomycin], for which, in assay [1], the “killing in time-kill curves” value is reported as “bacteriostatic killing” and the “Time to reach bactericidal killing, antibiotic alone” value is listed as “not bactericidal”. Besides, in assay [2], the “MBC/MIC S. aureus” value was 1. In addition, the “MBC/MIC P. aeruginosa” value in assay [3] was “≧8”. In addition, the “MBC/MIC P. aeruginosa” value in assay [3] (listed as fosfomycin) was no less than 8. Further, the “MBC/MIC E. coli” value in assay [4] turned out to be 8. Moreover, the MIC90 in assay [5] was 128 µg/mL. Also, in assay [5] (setting [6]), the MIC50 is 64 µg/mL.

These data come from US8980226B2, “Aerosolized fosfomycin/aminoglycoside combination for the treatment of bacterial respiratory infections” (Gilead Sciences, Inc., priority 2004, dated 2015).
